Values after ≈ are worked out from the molar mass of the structure shown. Where a name gives a salt, the structure may show the parent alone.
Key:
Type in all cases: physicochemical
[1] = Static storage stability of cocrystals and amorphous form by XRPD
[2] = Physical form stability (dehydration of the monohydrate); conditions: under vacuum at ambient temperature, at temperatures greater than 25° C. or at low humidity
[3] = Solubility in water (excess solid dispersed at least 24 hours at room temperature, UPLC-UV)
Description: Water: An excess of solid was added to water to produce a suspension and dispersed for at least 24 hours at room temperature. Suspensions were filtered. Filtrate was analyzed by UPLC-UV and compared against a standard curve to determine the solution concentration of the crystal form. Solids were analyzed by XRPD to determine the crystal form.

[4] = Moisture sorption (dynamic vapor sorption, hygroscopicity 0 to 95% RH); conditions: for hygroscopicity: DVS, 0 to 95% RH
Description: Moisture Sorption Moisture sorption data was collected using a dynamic vapor sorption (DVS) analyzer. A sample size of approximately 5-10 mg was used in a quartz pan. Hygroscopicity was evaluated from 0 to 95% RH in increments of 5 or 10% RH. Data for adsorption and desorption cycles were collected. Equilibrium criteria were set at 0.002% weight change in 5 minute with a maximum equilibration time of 120 minutes.

[5] = Solid stability of drug substance (chemical by UPLC; physical by XRPD, DSC, TGA); conditions: stored at 25° C./60% RH, 40° C./75% RH, 40° C./ambient or 60° C./ambient conditions
Description: Solid Stability Drug substance was stored at 25 C/60% RH, 40 C/75% RH, 40 C/ambient or 60 C/ambient conditions. Chemical stability was determined at each timepoint by dissolving the drug substance in 50% acetonitrile water for UPLC analysis. Physical stability was determined by analyzing the solid by XRPD, DSC and TGA.

## CS(=O)(=O)c1cncc(C(=O)N2[C@@H](C(=O)N[C@@H](c3cc(F)c(C(F)(F)F)cc3F)C3CC3)C[C@H]3C[C@H]32)c1 [Amorphous Form]
[1]; static storage at 80° C./0% RH or 40° C./75% RH
  time to crystallization upon static storage: ≤ 1 week

## CS(=O)(=O)c1cncc(C(=O)N2[C@@H](C(=O)N[C@@H](c3cc(F)c(C(F)(F)F)cc3F)C3CC3)C[C@H]3C[C@H]32)c1 [Form III]
[2]
  stability of the monohydrate (dehydration): dehydrates

## CS(=O)(=O)c1cncc(C(=O)N2[C@@H](C(=O)N[C@@H](c3cc(F)c(C(F)(F)F)cc3F)C3CC3)C[C@H]3C[C@H]32)c1 [Form IV]
[3]
  solubility in water: 10 µg/mL (≈ 18.4 µM)
[4]
  hygroscopicity: non-hygroscopic
[5]
  time physically and chemically stable on storage: 13 weeks

## CS(=O)(=O)c1cncc(C(=O)N2[C@@H](C(=O)N[C@@H](c3cc(F)c(C(F)(F)F)cc3F)C3CC3)C[C@H]3C[C@H]32)c1 [Form I]
[3]; thermodynamic from solid
  solubility: 13 µg/mL (≈ 23.9 µM)
[4]
  hygroscopicity: non-hygroscopic
[5]
  time physically and chemically stable on storage: 14 weeks

## CS(=O)(=O)c1cncc(C(=O)N2[C@@H](C(=O)N[C@@H](c3cc(F)c(C(F)(F)F)cc3F)C3CC3)C[C@H]3C[C@H]32)c1 [Glycerol cocrystal]
[1]; 40° C./75% RH storage 7 d
  storage stability by XRPD: Stable

## CS(=O)(=O)c1cncc(C(=O)N2[C@@H](C(=O)N[C@@H](c3cc(F)c(C(F)(F)F)cc3F)C3CC3)C[C@H]3C[C@H]32)c1 [Hydrochloride Salt Form]
[4]
  hygroscopicity: hygroscopic
[4]; exposure to water during moisture sorption experiments or slurry in water
  salt stability upon exposure to water: disproportionates to Free Form

## CS(=O)(=O)c1cncc(C(=O)N2[C@@H](C(=O)N[C@@H](c3cc(F)c(C(F)(F)F)cc3F)C3CC3)C[C@H]3C[C@H]32)c1 [Urea cocrystal]
[1]; 25° C./97% RH storage 7 d
  storage stability by XRPD: Stable
